Test [1] relates to P388. Kind of test: In vivo cytotoxicity against mouse P388 cells at 5 mg/kg. Format: functional, organism-based. The arrangement: dose 5 mg/kg.
Test [2] in a line: Cytotoxicity against rat 9ASK cells at 0.1 ug/ml. In kind it is functional.
The subject of test [3] is P388. Kind of test: Growth inhibition of mouse P388 cells. In kind it is functional.
The nature of test [4]: Antimitotic activity against rat 9ASK cells assessed as reversal of astrocyte morphology at 0.1 ug/ml. In kind it is functional.
The nature of test [5]: Antimitotic activity against rat 9ASK cells assessed as reversal of astrocyte morphology at 1 to 100 ug/ml. Format: functional.

Values after ≈ are worked out from the molar mass of the structure shown. Active and inactive are the calls of the source. The calls are words filed in the database; no cut-off is given here.

For `COc1ccc(C[C@@H](O)c2cc(OC)c(OC)c(OC)c2)cc1O` [COMBRETASTATIN], the result with P388 [1] was Active. The Activity in test [2] came to 0%; in test [4] it was 51%; in test [5], 71%. Moreover, the EC50 in the test on P388 [3] (read-out: ED50 (the source's name)) stood at 0.011 µg/mL (≈ 0.0329 µM).

Turning to `COc1ccc(-c2cc(=O)c3c(O)cc(O)cc3o2)cc1`, in the test on P388 [3], the ED50 entry is “inactive”.

Turning to `COc1cc2c(=O)oc3c(OC)c(O)cc4c(=O)oc(c1OC)c2c34`, the ED50 entry with P388 [3] was “inactive”.
